Test results from patent US20150071918A1, “PEPTIDES FOR THE TREATMENT OF CANCER” (H. LEE MOFFITT CANCER CENTER AND RESEARCH INSTITUTE, INC., priority 2012, published 2015).
pIC50: −log10 of the molar value. *1 amine or outer side, *2 acyl side, *3 side chain or, on linkers, in order; H or OH if unused. Where a SMILES comes first, the peptide text is derived from it. Bridges are numbered along the chain shown (N, C = ends). [ ]: non-standard residue; d: D form. The star is where a group is joined. dProlinol(O-CH2CO) = O=C(COC[C@H]1CCCN1[*:1])[*:2]; N(2-Aminoethyl)Gly = O=C(CN(CCN[*:3])[*:1])[*:2]; Nle = CCCC[C@H](N)C(=O)O; Ms = CS(=O)(=O)*

Legend:
[1] = test system: H929 myeloma cells; format: cell-based, human; conditions: H929 cells
How it was run: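 Cells exposed to a peptide concentration series for 24 h; cell death read by Topro-3 staining and FACS. IC50 from linear regression of dose-response curves, mean of 3 independent experiments.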

[2] = test system: U937 cells co-cultured with HS-5/GFP cells; assay: Co-culture bone marrow stroma (HS-5/GFP) model of drug resistance (CAM-DR), annexin V and FACS; format: cell-based; conditions: HS-5/GFP co-culture 24 hours prior to drug
Procedure: FIGS. 63A-63C. MTI-101 induces cell death in AML cell lines without succumbing to CAM-DR. HS-5/GFP cells were co-cultured with U937 cells for 24 hours prior to addition of 100 nM Mitoxantrone (FIG. 63A) or varying concentrations of MTI-101 (FIG. 63B). […] Cell death was measured in the GFP negative AML cells using annexin V to detect dead cells and FACS analysis. Cells cultured in suspension were used as a reference sample for drug sensitivity.

[3] = test system: A549 cells; assay: MTT viability, combination index with MEK inhibitor; format: cell-based
Procedure: FIG. 69. MTI-101 plus EGFR inhibitors are synergistic in lung cancer cell lines with EGFR activating mutations, and MTI-101 plus MEK inhibitors are synergistic in cell lines arboring activating RAS or BRAFF mutations. Values indicate average calculated combination index (CI). Additive (CI=1), synergism (CI<1) and, antagonism (CI>1). […] Cell viability was measured by the MTT assay. Data generated were used to calculate a Chou and Talalay Combination Index (CI).

[4] = test system: Caspase 3 activity and total ATP levels in AML cell lines; assay: Markers of cell death in AML cell lines (Caspase 3 activity, ATP levels); format: cell-based
Procedure: (§1) FIGS. 42A-42B. […] U937, HL-60 and NB4 cells were treated with varying doses of HM-27 for 24 hr and cell death was determined as described in Materials and Methods. U937 and NB4 cells (150,000) exposed to HM-27 for 24 h were collected and analyzed for Caspase 3 activity using the FITC Active Caspase-3 Apoptosis Kit (BDPharmingen) as per manufacturer's instructions. All figures are a representative of three independent experiments done in triplicates.
FIGS. 43A-43C. Cell death in AML cell lines by HM-27 (MTI-101) is via necrosis. Drug-treated cells (50 μM for U937 and 75 μM for HL-60) were lysed in 2% Triton X-100 in PBS with protease inhibitors (Roche) and incubated on ice for 45 min with mixing every 15 min. The supernatant (lysate) was collected after centrifugation for 20 sec at 10K rcf and 4° C. […] Twenty microliters (20 μL) of the lysate was mixed with 100 μL of the (rL/L) reagent from the kit and the luminescence was measured immediately. The luminescence was corrected by subtracting the value obtained from the blank and was checked against a standard. The luminescence was then multiplied by 50 to represent the total ATP levels from the 1.2×10^6 cells collected. […]
Cells were collected after incubation with HM-27 and analyzed for markers of cell death indicative of either apoptosis, autophagy or necrosis. […] Cell death was assessed by TO-PRO-3 staining followed by FACS analysis.

[5] = test system: pPyk2, pAkt and pErk1/2 in U937 or HL-60 cells; assay: Western blot of signaling in AML cells after peptide treatment; format: cell-based; conditions: U937 or HL-60, 50 μM MTI-101, western blot
Procedure: FIG. 44. U937 or HL-60 cells were treated with 50 μM MTI-101 for the indicated times and pPyk2, pAkt and pErk1/2 were detected by western blot analysis.
Consistent with data obtained with the linear peptide, we show CD44 and VLA-4 are pulled down using biotin conjugated HM-27 as bait.

[6] = test system: U937; assay: HM-27 induced cell death in AML cell line, TO-PRO-3 staining and FACS; format: cell-based
Procedure: as §1
(§2) Cells were collected after incubation with HM-27 and analyzed for markers of cell death indicative of either apoptosis, autophagy or necrosis. BM-MNCs were isolated from marrow aspirates of AML patients and normal individuals by Ficoll-Paque centrifugation and further enriched for CD34+ cells using immunomagnetic beads. Cell death was assessed by TO-PRO-3 staining followed by FACS analysis.

[7] = test system: NB4; assay: as above; format: cell-based
Procedure: as §1, §2

[8] = test system: HL-60; assay: as above; format: cell-based
Procedure: as §1, §2

`CCCC[C@@H]1NC(=O)CN(S(C)(=O)=O)CCNC(=O)[C@H](CCCCN)NC(=O)[C@H](CC(C)C)NC(=O)[C@H](CCCCN)NC(=O)[C@H](CC(C)C)NC(=O)[C@H](CCCCN)NC(=O)COC[C@H]2CCCN2C(=O)[C@H](Cc2c[nH]c3ccccc23)NC(=O)[C@H](C)NC(=O)[C@H](C(C)C)NC(=O)[C@H](C(C)C)NC1=O` [MTI-101] (Ms-[N(2-Aminoethyl)Gly][Nle]VVAW[dProlinol(O-CH2CO)]KLKLK; lactam 1-C) was tested, and the pIC50 ([1]; read-out: IC50) was 5.92, the “fold more potent than linear HYD1” value ([1]; reference of the 10- and 15-fold statements not expressly named) was 30 fold and the “sensitivity in co-culture versus suspension” value [2] was “not resistant in the co-culture bone marrow stroma model of drug resistance”. For the same molecule, the “combination with MEK inhibitor Selumetinib” value [3] was “Synergistic growth”, the “ATP levels in AML cell lines” value [4] was “resulted in ATP depletion” and the “Caspase 3 activation in AML cell lines” value ([4]; 24 h) was “did not cause activation of Caspase 3”. For the same molecule, the “phospho-protein levels in AML cells” value [5] was “increased the levels of pPyk2 and pErk1/2, but not pAKT”, the “phospho-protein levels in AML cells” value ([5]; listed as HM-27) was “induced an early activation of Erk1/2 in AML cells” and the pIC50 [6] was 4.41. For the same molecule, the pIC50 [7] was 4.19 and the pIC50 [8] was 4.12.
